Measured values published in paper PMC6805867, “Amphiphilic Triazine Polymer Derivatives as Antibacterial And Anti-atopic Agents in Mice Model” (Scientific Reports, 2019).

How the values were obtained:
[1] = system: selected bacterial strains; assay: Geometric mean of MIC values over the bacterial strains; format: cell-based; settings: geometric mean of MIC values from selected six bacterial strains (footnote b)
Protocol: (§1) The bacterial strains employed in the experiment were Escherichia coli (KCTC 1682), Pseudomonas aeruginosa (KCTC 1637), Bacillus subtilis (KCTC 3068), Staphylococcus aureus (KCTC 1621), three methicillin-resistant Staphylococcus aureus (CCARM 3089, 3090 and 3095), two multidrug-resistant Pseudomonas aeruginosa (CCARM 2095 and 2109) and vancomycin-resistant Enterococcus faecium (ATCC 51559). The antimicrobial activities of polymers were determined by the broth microdilution method, and the procedures were used as previously reported. Briefly, bacteria grown to mid-logarithmic phase in LB broth were diluted to 2 × 10^6 CFU/mL in 1% peptone and added to serial two-fold dilutions of different polymers ranging from 1 to 64 μg/mL. The plates were incubated in a shaking incubator at 37 °C for 18–22 h. The minimum inhibitory concentration (MIC) was determined by confirming the absence of bacterial growth both visually and spectrophotometrically by OD600 readings taken by a microplate ELISA reader (Molecular Devices, Sunnyvale, CA, USA). All measurements were performed three times.

[2] = system: serum total IgE and IgG2a; assay: DNCB-induced AD model, serum immunoglobulins by ELISA; format: in vivo, BALB/c mice; settings: versus AD-induced mice
Protocol: (§2) As described in our previous article, the 7-week-old female BALB/c mice were divided into seven groups (n = 8 per group): Control (Con) group, TZP3 200 μg/mL (TZP3) group, and TZP5 200 μg/mL (TZP5) group, DNCB-sensitized only (AD) group, DNCB-sensitized + TZP3 200 μg/mL (AD + TZP3) group, DNCB-sensitized + TZP5 200 μg/mL (AD + TZP5) group, DNCB-sensitized + Dermatop (Sanofi, Korea) 0.25% (AD + Dermatop) group. Dermatop was used as a positive control treatment. For the first induction of AD in the BALB/c mice, the backs of the mice were shaved and challenged with 200 μL of 1% 2,4-dinitrochlorobenzene(DNCB) in acetone/olive oil (3:1) one time (day−4). After 4 days from the induction, 0.5% DNCB was painted onto the backs of the mice every two days (day 2, 4, 6, 8, 10, 12, 14, 16 and 18). Concentrations of 200 μg/mL TZP3 or TZP5 in 20 μL of PBS were applied to the dorsal skin once daily for 18 days.
Blood was collected from each experimental group via cardiac puncture and was centrifuged at 3000 rpm and 4 °C for 20 min to obtain the serum. The levels of IgE, IgG2a were measured with an enzyme-linked immunosorbent assay kit (Bethyl Laboratories, Montgomery, TX, USA), following the manufacturer’s instructions.

[3] = system: Multidrug-resistant Pseudomonas aeruginosa (MDRPA) CCARM 2095; format: cell-based; settings: broth microdilution, 37 °C, 18–22 h
Protocol: as §1

[4] = system: Multidrug-resistant Pseudomonas aeruginosa (MDRPA) CCARM 2109; format: cell-based; settings: broth microdilution, 37 °C, 18–22 h
Protocol: as §1

[5] = system: Methicillin-resistant Staphylococcus aureus (MRSA) CCARM 3090; format: cell-based; settings: broth microdilution, 37 °C, 18–22 h
Protocol: as §1

[6] = system: Methicillin-resistant Staphylococcus aureus (MRSA) CCARM 3089; format: cell-based; settings: broth microdilution, 37 °C, 18–22 h
Protocol: as §1

[7] = system: Vancomycin-resistant Enterococcus faecium (VREF) ATCC 51559; assay: MIC against antibiotic-resistant bacteria; format: cell-based; settings: broth microdilution, 37 °C, 18–22 h
Protocol: as §1

HaCaT cells = assay: Cytotoxicity, MTT assay; format: cell-based; settings: 24 h, maximum tested concentration (20 µg)
Protocol: page 6: Figure S2. Effect of TZP3 and TZP5 on β-hexosaminidase release in RBL-2H3 cells Cytotoxicity evaluation of TZP3 and TZP5 on HaCaT cells Figure S3: Cytotoxicity evaluation of TZP3 […] and TZP5 (b) on HaCaT cells. TZP3 and TZP5 were treated with HaCaT cells in various concentrations for 24 h followed by MTT assay, and absorbance was measured. Cell viability was calculated as the relative absorbance. […]

[8] = system: TGF-β, TNF-α, iNOS, COX-2 protein in dorsal tissue; assay: DNCB-induced AD model, western blot of inflammatory mediators; format: in vivo, BALB/c mice; settings: versus AD mice
Protocol: as §2
Frozen skins from the mice were homogenized in liquid nitrogen. For the western blot analysis, the tissues were lysed in a RIPA lysis buffer(Sigma) containing 1% protease inhibitor. The cell lysates were incubated on ice for 1 h and then the homogenates were centrifuged at 13000 rpm for 20 min at 4 °C. […] The antibody-specific proteins were visualized with enhanced chemiluminescence (ECL) detection reagent and quantified using the ImageJ software. […]

[9] = system: AD-like skin lesion in BALB/c mice; assay: DNCB-induced AD-like skin lesion model, dermatitis score; format: in vivo; settings: 200 μg/mL in 20 μL PBS on dorsal skin once daily for 18 days, versus AD mice, n = 8
Protocol: as §2
The severity of dermatitis on the dorsal skin lesions was evaluated three times per week, according to a slight modification of the criteria described previously. The development of (1) erythema/hemorrhage, (2) scarring/dryness, (3) edema, and (4) excoriation/erosion was scored as 0 (none), 1 (mild), 2 (moderate), or 3 (severe). The sum of the individual scores was defined as the dermatitis score.

Row | Structure (SMILES) | GM (geometric mean of MIC values) [1] | serum level of total IgE [2] | serum level of total IgG2a [2] | MIC MDRPA CCARM 2095 [3] | MIC MDRPA CCARM 2109 [4] | MIC MRSA CCARM 3090 [5] | MIC MRSA CCARM 3089 [6] | MIC VREF ATCC 51559 [7] | cytotoxicity in HaCaT cells (HaCaT cells) | protein expressions (TGF-β, TNF-α, iNOS, COX-2) in dorsal tissue [8] | dermatitis score [9]
1 | NCCCN(CCCN)c1nc(Cl)nc(NCCNc2nc(NCCNc3nc(N)nc(NCCC(c4ccccc4)c4ccccc4)n3)nc(N(CCCN)CCCN)n2)n1 [TZP5] | 3.0 µg/mL | significantly reduced | significantly reduced | 8 [6] µg/mL | 8 [6] µg/mL | 4 [3] µg/mL | 4 [3] µg/mL | 4 [3] µg/mL | didn’t show significant cytotoxicity | significant decrease | significantly decreased score
2 | NCCCN(CCCN)c1nc(N)nc(NCCNc2nc(Cl)nc(N(Cc3ccccc3)Cc3ccccc3)n2)n1 [TZP3] | 4.5 [7.6] μg/mL | significantly reduced | significantly reduced | 8 [13.5] µg/mL | 8 [13.5] µg/mL | 8 [13.5] µg/mL | 8 [13.5] µg/mL | 8 [13.5] µg/mL | didn’t show significant cytotoxicity | significant decrease | significantly decreased score
